Legend:
XIAP-BIR3 = XIAP-BIR3 (Homo sapiens (Human), UniProt P98170); assay: BIR binding assay (FRET competition), XIAP BIR3; details: for XIAP BIR3 vs BIR2 separation window: fold separation (FS) for XIAP
In short: (§1)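 615/665 nm FRET ratio. Compound, His-domain and 200 nM AF647-SMAC peptide incubated 60 min, then 2 nM Eu-W1024 for 30 min. Domains: cIAP1-BIR3 50 nM; XIAP-BIR3 100 nM; cIAP1-BIR2, cIAP2-BIR2 325 nM each. 15-pt 3-fold series; variable-slope IC50.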

cIAP2-BIR2 = cIAP2-BIR2 (Homo sapiens (Human), UniProt Q13489); assay: BIR binding assay (FRET competition), cIAP2 BIR2
In short: as §1

cIAP2-BIR3 = cIAP2-BIR3 (Homo sapiens (Human), UniProt Q13489); assay: BIR binding assay (FRET competition), cIAP2 BIR3; details: for cIAP2 BIR3 vs BIR2 separation window: fold separation (FS) for cIAP2
cIAP1-BIR2 = cIAP1-BIR2 (Homo sapiens (Human), UniProt Q13490); assay: BIR binding assay (FRET competition), cIAP1 BIR2
In short: as §1

[1] = tested on: Jurkat HIV-luciferase clones; assay: Jurkat latency reversal assay; format: cell-based; details: Homo sapiens, 48 h; Jurkat latency reversal assay potency; read-out: Jurkat pEC50 (converted)
In short: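 A 1:1:1 mix of three Jurkat clones (C16, 115, N6) carrying integrated luciferase-expressing HIV proviruses, 5,000 cells/well, was exposed to 3-fold, 14-point compound titrations from 10 μM at 0.5% DMSO for 48 h at 37° C. Steady-Glo luminescence was fitted by four-parameter logistic regression to give EC50 and maximal percent activation relative to vehicle.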

cIAP1-BIR3 = cIAP1-BIR3 (Homo sapiens (Human), UniProt Q13490); assay: BIR binding assay (FRET competition), cIAP1 BIR3; details: for cIAP1 BIR3 vs BIR2 separation window: fold separation (FS) for cIAP1
In short: as §1

XIAP-BIR2 = XIAP-BIR2 (Homo sapiens (Human), UniProt P98170); assay: BIR binding assay (FRET competition), XIAP BIR2; details: FRET competition; read-out: XIAP BIR2 (pIC50) (converted)
In short: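 Competitive TR-FRET used His-tagged XIAP-BIR2 (200 nM) and 200 nM AlexaFluor647-labelled AVPIAQKSE SMAC peptide in HEPES buffer pH 7.4 with CHAPS, glycerol and DTT, incubated 60 min before 30 min with 2 nM Eu-W1024. The 615/665 nm ratio from a 15-point, 3-fold series was fit with a four-parameter model for IC50/pIC50.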

Chain of XIAP-BIR3 (P98170 241-356): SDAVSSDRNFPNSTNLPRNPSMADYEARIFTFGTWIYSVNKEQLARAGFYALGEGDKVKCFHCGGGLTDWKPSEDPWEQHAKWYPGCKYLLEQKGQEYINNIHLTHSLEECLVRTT
Chain of cIAP1-BIR3 (Q13490 253-363): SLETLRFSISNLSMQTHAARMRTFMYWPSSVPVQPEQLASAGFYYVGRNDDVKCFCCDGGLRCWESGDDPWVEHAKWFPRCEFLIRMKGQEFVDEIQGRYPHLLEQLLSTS
Chain of cIAP2-BIR2 (Q13489 158-242): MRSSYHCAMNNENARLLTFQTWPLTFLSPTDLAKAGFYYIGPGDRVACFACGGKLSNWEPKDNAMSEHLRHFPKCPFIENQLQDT
Chain of cIAP1-BIR2 (Q13490 173-257): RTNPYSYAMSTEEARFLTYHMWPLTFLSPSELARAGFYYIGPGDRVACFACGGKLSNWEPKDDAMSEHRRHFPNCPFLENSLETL
Chain of XIAP-BIR2 (P98170 124-240): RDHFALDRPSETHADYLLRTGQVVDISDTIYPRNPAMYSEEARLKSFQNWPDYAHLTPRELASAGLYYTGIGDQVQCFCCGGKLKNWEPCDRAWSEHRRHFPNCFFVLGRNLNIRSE
Chain of cIAP2-BIR3 (Q13489 238-349): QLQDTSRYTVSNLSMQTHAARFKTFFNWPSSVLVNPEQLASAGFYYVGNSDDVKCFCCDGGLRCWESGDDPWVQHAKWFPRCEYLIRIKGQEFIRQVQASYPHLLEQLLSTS

SMILES | IC50 (XIAP-BIR3) [nM] | XIAP BIR3 vs BIR2 separation window (XIAP-BIR3) | IC50 (cIAP2-BIR2) [nM] | IC50 (cIAP2-BIR3) [nM] | cIAP2 BIR3 vs BIR2 separation window (cIAP2-BIR3) | IC50 (cIAP1-BIR2) [nM] | EC50 [1] [nM] | IC50 (cIAP1-BIR3) [nM] | cIAP1 BIR3 vs BIR2 separation window (cIAP1-BIR3) | IC50 (XIAP-BIR2) [nM]
C[C@@H]1CN(CC(=O)N2CC(C)(C)c3[nH]c(=O)c(Cc4ccc(F)cc4)cc32)[C@@H](CN2CCN(CCc3cn(CCCC(=O)N4CCN(C[C@H]5CN[C@H](C)CN5CC(=O)N5CC(C)(C)c6[nH]c(=O)c(Cc7ccc(F)cc7)cc65)[C@H](C)C4)nn3)C[C@H]2C)CN1 [Compound 157] | 15.8 to 31.6 | ++++ (FS>10,000) | 22.4 to 1000 | 7.94 to 15.8 | ++ (1,000>FS>100) | 1000 to 3160 | 63.1 to 316 | 7.94 to 15.8 | ++ (1,000>FS>100) | 10000 to 51300
C[C@@H]1CN(CC(=O)N2CC(C)(C)c3[nH]c(=O)c(Cc4ccc(F)cc4)cc32)[C@@H](CN2CCN(CCc3cn(CCCCC(=O)N4CCN(C[C@H]5CN[C@H](C)CN5CC(=O)N5CC(C)(C)c6[nH]c(=O)c(Cc7ccc(F)cc7)cc65)[C@H](C)C4)nn3)C[C@H]2C)CN1 [Compound 158] | 7.94 to 15.8 | ++++ (FS>10,000) | 22.4 to 1000 | 7.94 to 15.8 | ++ (1,000>FS>100) | 1000 to 3160 | 63.1 to 316 | 7.94 to 15.8 | ++ (1,000>FS>100) | 10000 to 51300
C[C@@H]1CN(CC(=O)N2CC(C)(C)c3[nH]c(=O)c(Cc4ccc(F)cc4)cc32)[C@@H](CN2CCO[C@H](C(=O)NCC(=O)N3CCN(C[C@H]4CN[C@H](C)CN4CC(=O)N4CC(C)(C)c5[nH]c(=O)c(Cc6ccc(F)cc6)cc54)[C@H](C)C3)C2)CN1 [Compound 159, (S)-4-(((2R,5R)-1-(2-(6-(4-fluorobenzyl)-3,3-dimethyl-5-oxo-2,3,4,5-tetrahydro-1H-pyrrolo[3,2-b]pyridin-1-yl)-2-oxoethyl)-5-methylpiperazin-2-yl)methyl)-N-(2-((R)-4-(((2R,5R)-1-(2-(6-(4-fluorobenzyl)-3,3-dimethyl-5-oxo-2,3,4,5-tetrahydro-1H-pyrrolo[3,2-b]pyridin-1-yl)-2-oxoethyl)-5-methylpiperazin-2-yl)methyl)-3-methylpiperazin-1-yl)-2-oxoethyl)morpholine-2-carboxamide] | 7.94 to 15.8 | ++++ (FS>10,000) | 22.4 to 1000 | 1.38 to 7.94 | +++ (10,000>FS>1,000) | 22.4 to 1000 | 63.1 to 316 | 7.94 to 15.8 | ++ (1,000>FS>100) | 10000 to 51300
C[C@@H]1CN(CC(=O)N2CC(C)(C)c3[nH]c(=O)c(Cc4ccc(F)cc4)cc32)[C@@H](CN2CCO[C@H](C(=O)NCCCC(=O)N3CCN(C[C@H]4CN[C@H](C)CN4CC(=O)N4CC(C)(C)c5[nH]c(=O)c(Cc6ccc(F)cc6)cc54)[C@H](C)C3)C2)CN1 [Compound 160, (S)-4-(((2R,5R)-1-(2-(6-(4-fluorobenzyl)-3,3-dimethyl-5-oxo-2,3,4,5-tetrahydro-1H-pyrrolo[3,2-b]pyridin-1-yl)-2-oxoethyl)-5-methylpiperazin-2-yl)methyl)-N-(4-((R)-4-(((2R,5R)-1-(2-(6-(4-fluorobenzyl)-3,3-dimethyl-5-oxo-2,3,4,5-tetrahydro-1H-pyrrolo[3,2-b]pyridin-1-yl)-2-oxoethyl)-5-methylpiperazin-2-yl)methyl)-3-methylpiperazin-1-yl)-4-oxobutyl)morpholine-2-carboxamide] | 7.94 to 15.8 | ++++ (FS>10,000) | 1000 to 3160 | 7.94 to 15.8 | +++ (10,000>FS>1,000) | 1000 to 3160 | 63.1 to 316 | 7.94 to 15.8 | ++ (1,000>FS>100) | 10000 to 51300
Cc1ccc(Cc2cc3c([nH]c2=O)C(C)(C)CN3C(=O)CN2C[C@@H](C)NC[C@@H]2CN2CCO[C@H](C(=O)NCc3ccc(CNC(=O)[C@@H]4CN(C[C@H]5CN[C@H](C)CN5CC(=O)N5CC(C)(C)c6[nH]c(=O)c(Cc7ccc(C)cc7)cc65)CCO4)cc3)C2)cc1 [Compound 163, (2S,2′S)-N,N′-(1,4-phenylenebis(methylene))bis(4-(((2R,5R)-1-(2-(3,3-dimethyl-6-(4-methylbenzyl)-5-oxo-2,3,4,5-tetrahydro-1H-pyrrolo[3,2-b]pyridin-1-yl)-2-oxoethyl)-5-methylpiperazin-2-yl)methyl)morpholine-2-carboxamide)] | 7.94 to 15.8 | ++++ (FS>10,000) | 22.4 to 1000 | 1.38 to 7.94 | +++ (10,000>FS>1,000) | 22.4 to 1000 | 12.6 to 63.1 | 1.38 to 7.94 | ++ (1,000>FS>100) | 10000 to 51300
C[C@@H]1CN(CC(=O)N2CC(C)(C)c3[nH]c(=O)c(Cc4ccc(C(F)F)cc4)cc32)[C@@H](CN2CCO[C@H](C(=O)NCc3ccc(CNC(=O)[C@@H]4CN(C[C@H]5CN[C@H](C)CN5CC(=O)N5CC(C)(C)c6[nH]c(=O)c(Cc7ccc(C(F)F)cc7)cc65)CCO4)cc3)C2)CN1 [Compound 166, (2S,2′S)-N,N′-(1,4-phenylenebis(methylene)) bis(4-(((2R,5R)-1-(2-(6-(4-(difluoromethyl)benzyl)-3,3-dimethyl-5-oxo-2,3,4,5-tetrahydro-1H-pyrrolo[3,2-b]pyridin-1-yl)-2-oxoethyl)-5-methylpiperazin-2-yl)methyl)morpholine-2-carboxamide)] | 15.8 to 31.6 | ++++ (FS>10,000) | 22.4 to 1000 | 1.38 to 7.94 | +++ (10,000>FS>1,000) | 22.4 to 1000 | 316 to 3310 | 7.94 to 15.8 | ++ (1,000>FS>100) | 10000 to 51300
C[C@@H]1CN(CC(=O)N2CC(C)(C)c3[nH]c(=O)c(Cc4c(F)cc(F)cc4F)cc32)[C@@H](CN2CCO[C@H](C(=O)NCc3ccc(CNC(=O)[C@@H]4CN(C[C@H]5CN[C@H](C)CN5CC(=O)N5CC(C)(C)c6[nH]c(=O)c(Cc7c(F)cc(F)cc7F)cc65)CCO4)cc3)C2)CN1 [Compound 167, (2S,2′S)-N,N′-(1,4-phenylenebis(methylene)) bis(4-(((2R,5R)-1-(2-(3,3-dimethyl-5-oxo-6-(2,4,6-trifluorobenzyl)-2,3,4,5-tetrahydro-1H-pyrrolo[3,2-b]pyridin-1-yl)-2-oxoethyl)-5-methylpiperazin-2-yl)methyl)morpholine-2-carboxamide)] | 15.8 to 31.6 | ++++ (FS>10,000) | 22.4 to 1000 | 1.38 to 7.94 | ++ (1,000>FS>100) | 22.4 to 1000 | 0.49 to 12.6 | 7.94 to 15.8 | ++ (1,000>FS>100) | 10000 to 51300

Source: US20250326771A1, “PIPERAZINE DERIVATIVES USEFUL IN HIV THERAPY” (VIIV HEALTHCARE COMPANY, priority 2022, published 2025)
